# Reference: patent US7029840B2 (priority 2000, dated 2006)
# Like-named read-outs stand apart in the source and are kept apart here.
# Legend:
# [1] = tested on: intact cells of N. gonorrhoeae; assay type: cell-based, N. gonorrhoeae ATCC 19424; conditions: for average MOTA values for day 0 versus day 6: 100 mM sodium citrate, sodium fluoride, sodium borate, 5 mM EDTA, urine at 5, 25, 35, and 45° C.; for Average MOTA Value: 100 mM, urine
# Protocol: (§1) The samples were spiked with cells of N. gonorrhoeae a final concentration 2500 cells/ml. Each sample was incubated for 14 days at room temperature. At specific time points (day 0, 6, and 14), 2.0-ml volumes of each sample (eight replicates) was centrifuged at 2000×g for 30 minutes at room temperature. The supernate was decanted and the cell pellet was resuspended with a 2.0-ml volume of BSA/PBS, and then centrifuged at 2000×g for 30 minutes at room temperature. Again, the supernatant was decanted and the cell pellet was resuspended with a 2.0-ml volume of CT/GC diluent. […] SDA was performed on the cell lysate as described in Example 1.
# The samples were spiked with cells of N. gonorrhoeae at a final concentration of 2500 cells/ml. Each sample was incubated for 6 days at 5, 25, 35, and 45° C. At specific time points (day 0 and 6), the samples were processed by centrifugation at 2000×g as described in Example 2. […] SDA was performed on the cell lysates as described in Example 1.
# [2] = tested on: intact cells of N. gonorrhoeae; assay type: cell-based, N. gonorrhoeae ATCC 19424; conditions: urine, room temperature; for average amplification MOTA values at day 0 versus day 6: 100 mM sodium citrate, sodium fluoride, sodium borate, 5 mM EDTA
# Protocol: as §1
# Forty-milliliter volumes of negative urine was prepared with 100 mM sodium citrate (final concentration); 5, 10, and 15% (v/v) sucrose (final concentration); 5, 10, and 15% (v/v) PVP (final concentration); 5, 10, and 15 mM magnesium chloride (final concentration); 10 and 100 mM sodium fluoride (final concentration); 10 and 100 mM sodium formate (final concentration); 10 and 100 mM sodium borate (final concentration); 0.5 and 5 mM EDTA (final concentration); 0.5 and 5 mM EGTA (final concentration); and without chemical additive. The samples were spiked with cells of N. gonorrhoeae at a final concentration of 2500 cells/ml. Each sample was incubated for 6 days at room temperature. At specific time points (day 0 and 6), the samples were processed by centrifugation at 2000×g as described in Example 2. […] SDA was performed on the cell lysate as described in Example 1.
# [3] = tested on: N. gonorrhoeae plasmid DNA; experiment: Stability of N. gonorrhoeae plasmid DNA in urine, 3 days at room temperature (SDA, MOTA value); assay type: biochemical, Neisseria gonorrhoeae; conditions: 100 mM
# Protocol: The samples were incubated for 3 days at room temperature. […] SDA was performed on the isolated DNA as described in Example 1.
Structure (SMILES),average MOTA values for day 0 versus day 6 [1],"Average MOTA Value ([1]; 5° C., Day 0)","Average MOTA Value ([1]; 5° C., Day 6)","Average MOTA Value ([1]; 25° C., Day 0)","Average MOTA Value ([1]; 25° C., Day 6)","Average MOTA Value ([1]; 35° C., Day 0)","Average MOTA Value ([1]; 35° C., Day 6)","Average MOTA Value ([1]; 45° C., Day 0)","Average MOTA Value ([1]; 45° C., Day 6)","Average MOTA Value ([2]; 10 mM, Day 0)","Average MOTA Value ([2]; 10 mM, Day 6)",average amplification MOTA values at day 0 versus day 6 [2],"Average MOTA Value ([2]; 100 mM, Day 0)","Average MOTA Value ([2]; 100 mM, Day 6)",Average MOTA Value ([3]; Day 0),Average MOTA Value ([3]; Day 3),"Average MOTA Value ([2]; 5 mM, Day 0)","Average MOTA Value ([2]; 5 mM, Day 6)",other results
"O.O.O.O.O.O.O.O.O.O.[Na+].[Na+].[O-]B1OB2OB([O-])OB(O1)O2 [sodium borate, Sodium borate]",no significant difference,41940,40325,49622,50745,60308,60296,63343,62283,26170,15464,not significantly different,24607,28908,23263,34089,–,–,–
"OC[C@H]1O[C@@](CO)(O[C@H]2O[C@H](CO)[C@@H](O)[C@H](O)[C@H]2O)[C@@H](O)[C@@H]1O [sucrose, Sucrose]",–,–,–,–,–,–,–,–,–,–,–,–,–,–,–,–,–,–,"Average MOTA Value ([2]; 5% (v/v), Day 0): 28427; Average MOTA Value ([2]; 5% (v/v), Day 6): 501; Average MOTA Value ([2]; 10% (v/v), Day 0): 29548; Average MOTA Value ([2]; 10% (v/v), Day 6): 5555; Average MOTA Value ([2]; 15% (v/v), Day 0): 27391; Average MOTA Value ([2]; 15% (v/v), Day 6): 8497"
"O=C[O-].[Na+] [sodium formate, Sodium formate]",–,–,–,–,–,–,–,–,–,34446,2211,–,29357,2139,–,–,–,–,–
"[Cl-].[Cl-].[Mg+2] [MgCl^2, Magnesium chloride]",–,–,–,–,–,–,–,–,–,27157,4547,–,–,–,–,–,28072,1507,"Average MOTA Value ([2]; 15 mM, Day 0): 35926; Average MOTA Value ([2]; 15 mM, Day 6): 4868"
"O=C(O)CN(CCOCCOCCN(CC(=O)O)CC(=O)O)CC(=O)O [EGTA, Ethylenebis(oxyethylenenitrilo) tetraacetic acid]",–,–,–,–,–,–,–,–,–,–,–,–,–,–,–,–,34504,6931,"Average MOTA Value ([2]; 0.5 mM, Day 0): 32611; Average MOTA Value ([2]; 0.5 mM, Day 6): 1150"
"[F-].[Na+] [sodium fluoride, Sodium fluoride]",no significant difference,43807,59543,44945,47391,41608,47347,45741,48043,32162,10894,not significantly different,26385,24559,27811,42689,–,–,–
